Measured values: PubChem BioAssay (NCI)
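A five-concentration, 48-hour dose response in 96-well plates underlies each endpoint, interpolated linearly between surrounding concentrations. The concentration for full growth arrest is given as TGI.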

Key:
Test in all cases: NCI-60 cell line screen, 48 h
[1] = system: LOX IMVI melanoma
[2] = system: HCT-116 colon
[3] = system: HCT-15 colon
[4] = system: BT-549 breast
[5] = system: HOP-92 NSCLC
[6] = system: CCRF-CEM leukemia
[7] = system: NCI-H522 lung
[8] = system: SNB-19 CNS
[9] = system: SK-MEL-2 melanoma
[10] = system: HS 578T breast
[11] = system: SF-295 CNS
[12] = system: NCI-H460 lung
[13] = system: SNB-75 CNS
[14] = system: SK-OV-3 ovarian
[15] = system: IGROV1 ovarian
[16] = system: HOP-62 NSCLC
[17] = system: MDA-MB-435
[18] = system: MDA-N
[19] = system: DU-145 prostate
[20] = system: TK-10 renal
[21] = system: A549 NSCLC
[22] = system: CAKI-1 renal
[23] = system: EKVX NSCLC
[24] = system: SF-539 CNS
[25] = system: OVCAR-4 ovarian
[26] = system: 786-0 renal
[27] = system: SF-268 CNS
[28] = system: RPMI-8226 leukemia
[29] = system: MALME-3M melanoma
[30] = system: OVCAR-3 ovarian
[31] = system: UACC-257 melanoma
[32] = system: OVCAR-5 ovarian
[33] = system: HCC-2998 colon
[34] = system: UACC-62 melanoma
[35] = system: ACHN renal
[36] = system: MDA-MB-231 breast
[37] = system: SW-620 colon
[38] = system: HL-60(TB) leukemia
[39] = system: A498 renal
[40] = system: M14 melanoma
[41] = system: SK-MEL-28 melanoma
[42] = system: UO-31 renal
[43] = system: SR leukemia
[44] = system: NCI-H23 lung
[45] = system: SN12C renal
[46] = system: MCF7 breast
[47] = system: T-47D breast
[48] = system: SK-MEL-5 melanoma
[49] = system: MOLT-4 leukemia
[50] = system: KM12 colon
[51] = system: RXF 393 renal
[52] = system: U251 CNS
[53] = system: COLO 205 colon
[54] = system: PC-3 prostate
[55] = system: HT29 colon
[56] = system: K-562 leukemia
[57] = system: NCI/ADR-RES ovarian
[58] = system: OVCAR-8 ovarian
[59] = system: NCI-H226 lung

**Q.** What does the source list for Cc1cccc(C(C)C)c1NC(=O)C(=O)CC(=O)c1sc(Nc2ccccc2Cl)nc1C?
**A.** TGI [1]: > 100 µM; TGI [2]: > 100 µM; TGI [3]: > 100 µM; TGI [4]: 93.2 µM; TGI [5]: 66.2 µM; TGI [6]: > 100 µM; TGI [7]: > 100 µM; TGI [8]: > 100 µM; TGI [9]: > 100 µM; TGI [10]: > 100 µM; TGI [11]: > 100 µM; TGI [12]: 51.1 µM; TGI [13]: > 100 µM; TGI [14]: > 100 µM; TGI [15]: > 100 µM; TGI [16]: > 100 µM; TGI [17]: 33.2 µM; TGI [18]: 54.6 µM; TGI [19]: > 100 µM; TGI [20]: > 100 µM; TGI [21]: > 100 µM; TGI [22]: > 100 µM; TGI [23]: > 100 µM; TGI [24]: 24.7 µM; TGI [25]: > 100 µM; TGI [26]: > 100 µM; TGI [27]: > 100 µM; TGI [28]: > 100 µM; TGI [29]: > 100 µM; TGI [30]: > 100 µM; TGI [31]: > 100 µM; TGI [32]: > 100 µM; TGI [33]: 32.7 µM; TGI [34]: > 100 µM; TGI [35]: > 100 µM; TGI [36]: > 100 µM; TGI [37]: > 100 µM; TGI [38]: 41 µM; TGI [39]: > 100 µM; TGI [40]: > 100 µM; TGI [41]: > 100 µM; TGI [42]: > 100 µM; TGI [43]: > 100 µM; TGI [44]: > 100 µM; TGI [45]: > 100 µM; TGI [46]: > 100 µM; TGI [47]: > 100 µM; TGI [48]: 87.9 µM; TGI [49]: > 100 µM; TGI [50]: > 100 µM; TGI [51]: > 100 µM; TGI [52]: > 100 µM; TGI [53]: > 100 µM; TGI [54]: > 100 µM

**Q.** Which results are given for NCCSc1nc2ccccc2s1?
**A.** TGI [1]: 90.8 µM; TGI [2]: > 100 µM; TGI [55]: > 100 µM; TGI [3]: > 100 µM; TGI [4]: 93.8 µM; TGI [5]: 71 µM; TGI [6]: > 100 µM; TGI [7]: 75.7 µM; TGI [8]: > 100 µM; TGI [9]: 82.2 µM; TGI [10]: 76.4 µM; TGI [11]: 73.2 µM; TGI [12]: > 100 µM; TGI [13]: 62.1 µM; TGI [14]: 79.7 µM; TGI [15]: > 100 µM; TGI [16]: 62.3 µM; TGI [17]: 69 µM; TGI [56]: > 100 µM; TGI [18]: > 100 µM; TGI [19]: > 100 µM; TGI [20]: 66.3 µM; TGI [21]: > 100 µM; TGI [22]: > 100 µM; TGI [57]: > 100 µM; TGI [23]: 80.6 µM; TGI [58]: > 100 µM; TGI [24]: 37.6 µM; TGI [25]: > 100 µM; TGI [26]: 71.5 µM; TGI [27]: 86 µM; TGI [28]: 95.7 µM; TGI [29]: > 100 µM; TGI [30]: > 100 µM; TGI [31]: > 100 µM; TGI [32]: > 100 µM; TGI [34]: > 100 µM; TGI [35]: > 100 µM; TGI [36]: > 100 µM; TGI [37]: > 100 µM; TGI [38]: > 100 µM; TGI [39]: 90.7 µM; TGI [40]: > 100 µM; TGI [41]: > 100 µM; TGI [42]: > 100 µM; TGI [43]: 79.5 µM; TGI [44]: > 100 µM; TGI [45]: > 100 µM; TGI [46]: 98.1 µM; TGI [48]: > 100 µM; TGI [59]: 92.9 µM; TGI [49]: 94.8 µM; TGI [50]: > 100 µM; TGI [51]: 77.9 µM; TGI [52]: 48.3 µM; TGI [53]: > 100 µM; TGI [54]: > 100 µM

**Q.** How did the TGI [2] turn out when Cc1cc(N(CCC#N)CCC#N)ccc1/C(N=Nc1ccc(Cl)cc1)=N\NC(=O)c1cc(Cl)ccc1O was run?
**A.** > 100 µM

**Q.** What about the TGI [55] of the same compound?
**A.** > 100 µM

**Q.** And the TGI [3]?
**A.** > 100 µM

**Q.** And the TGI [4]?
**A.** > 100 µM

**Q.** And the TGI [6]?
**A.** > 100 µM

**Q.** What about the TGI [7] of the same compound?
**A.** 37 µM

**Q.** What about the TGI [8] of the same compound?
**A.** 75.4 µM

**Q.** What about the TGI [9] of the same compound?
**A.** > 100 µM

**Q.** What about the TGI [10] of the same compound?
**A.** 56.2 µM

**Q.** And the TGI [11]?
**A.** 91.4 µM

**Q.** And the TGI [12]?
**A.** > 100 µM

**Q.** And the TGI [13]?
**A.** 84.4 µM

**Q.** What about the TGI [14] of the same compound?
**A.** 97.9 µM

**Q.** And the TGI [15]?
**A.** > 100 µM

**Q.** And the TGI [16]?
**A.** 56.6 µM

**Q.** And the TGI [17]?
**A.** > 100 µM

**Q.** What about the TGI [56] of the same compound?
**A.** > 100 µM

**Q.** What about the TGI [18] of the same compound?
**A.** > 100 µM

**Q.** And the TGI [19]?
**A.** > 100 µM

**Q.** And the TGI [20]?
**A.** > 100 µM

**Q.** And the TGI [21]?
**A.** > 100 µM

**Q.** And the TGI [22]?
**A.** > 100 µM

**Q.** And the TGI [57]?
**A.** > 100 µM

**Q.** And the TGI [23]?
**A.** > 100 µM

**Q.** What about the TGI [58] of the same compound?
**A.** > 100 µM

**Q.** And the TGI [24]?
**A.** 73.6 µM

**Q.** What about the TGI [25] of the same compound?
**A.** > 100 µM

**Q.** What about the TGI [26] of the same compound?
**A.** > 100 µM

**Q.** And the TGI [27]?
**A.** 86.2 µM

**Q.** What about the TGI [28] of the same compound?
**A.** > 100 µM

**Q.** What about the TGI [29] of the same compound?
**A.** > 100 µM

**Q.** What about the TGI [30] of the same compound?
**A.** 66.2 µM

**Q.** What about the TGI [31] of the same compound?
**A.** > 100 µM

**Q.** And the TGI [32]?
**A.** > 100 µM

**Q.** What about the TGI [33] of the same compound?
**A.** > 100 µM

**Q.** And the TGI [34]?
**A.** > 100 µM

**Q.** And the TGI [35]?
**A.** > 100 µM

**Q.** And the TGI [36]?
**A.** > 100 µM

**Q.** What about the TGI [39] of the same compound?
**A.** > 100 µM

**Q.** What about the TGI [40] of the same compound?
**A.** > 100 µM

**Q.** And the TGI [42]?
**A.** > 100 µM

**Q.** What about the TGI [43] of the same compound?
**A.** > 100 µM

**Q.** What about the TGI [44] of the same compound?
**A.** > 100 µM

**Q.** And the TGI [45]?
**A.** > 100 µM

**Q.** And the TGI [46]?
**A.** > 100 µM

**Q.** What about the TGI [47] of the same compound?
**A.** > 100 µM

**Q.** And the TGI [48]?
**A.** > 100 µM

**Q.** What about the TGI [59] of the same compound?
**A.** 85.1 µM

**Q.** What about the TGI [49] of the same compound?
**A.** > 100 µM

**Q.** What about the TGI [50] of the same compound?
**A.** > 100 µM

**Q.** What about the TGI [51] of the same compound?
**A.** 74.5 µM

**Q.** What about the TGI [52] of the same compound?
**A.** > 100 µM

**Q.** What about the TGI [53] of the same compound?
**A.** > 100 µM

**Q.** What about the TGI [54] of the same compound?
**A.** > 100 µM
